Test results taken from patent publication US12661348B2, “Systemic formulation of a pyridinone derivate for TG2-related diseases” (Dr. Falk Pharma GmbH, priority 2020, dated 2026).

Tests used:
[1] = test system: STAM-model in the C57BL/6-mouse; experiment: Stelic animal model (STAM-model) for non-alcoholic steatohepatitis; type: in vivo
Experimental: The anti-fibrotic effect of compound of formula (I) in the liver was investigated in a STAM-model for non-alcoholic steatohepatitis. This model bases on the induction of a chronical fibrotic inflammation of the liver by means of the combination of a chemical noxin (Streptozotocin) and a fat-containing diet in the C57BL/6-mouse. The pathology is similar to the described NASH in human.
Groups of 8 STAM-mice were treated directly over a time period of two weeks with three different dosages of said compound: 100 mg/kg body weight, 300 mg/kg body weight, and 1000 mg/kg body weight. The daily dosage was administered orally as a suspension in two parts at intervals of 8 hours. In a control group, the STAM-mice were treated in same way but merely with the vehicle methyl cellulose. After the end of the treatment, a measurement of the biochemical parameter in the Plasma and after dissection of the animals a histopathological investigation for the liver, the determination of the fat content of the liver as well as the determination of the expression of inflammation and fibrosis marker was performed.

[2] = test system: UUO-model in the C57BL/6-mouse; experiment: Unilateral ureteral obstruction model (UUO-model) for nephritic fibrosis; type: in vivo; conditions: 100, 300, 1000 mg/kg body weight daily, oral suspension, two weeks
From the text: The anti-fibrotic effect of (S,E)-methyl-7-(1-(2-(2-ethylbutylamino)-2-oxoethyl)-2-oxo-1,2-dihydro-pyridin-3-ylamino)-6-(1-methyl-1H-imidazole-5-carboxamido)-7-oxohept-2-enoate (compound of formula (I)) in the kidney was investigated in an UUO-model in the C57BL/6-mouse. In a UUO-model, in one of the kidneys fibrosis is induced by ligation of one ureter. The other kidney remains functional. The pathophysiology of the UUO-model resembles the chronic nephropathy in humane (Chronic Kidney Disease, CKD).
Groups of 8 UUO-mice were treated directly after ligation of the ureter over a time period of two weeks with three different dosages of said compound: 100 mg/kg body weight, 300 mg/kg body weight, and 1000 mg/kg body weight. The daily dosage was administered orally as a suspension at intervals of 8 hours. In a control group, the UUO-mice were treated in same way but merely with the vehicle methyl cellulose. After the end of the treatment, the histopathological investigation of the kidney tissue as well as the determination of the amount of hydroxyproline in the kidney was performed. […]

TG2 = target: T1, TG2 (Mus musculus, UniProt P21981); experiment: Immune-histochemical localisation of the complex of compound and TG2 in kidney tissue of UUO-mice; type: in vivo, C57BL/6-mouse; conditions: oral, different dosages, compound-specific antibody
T1 construct: The immune-histochemical localisation of the complex of compound of formula (I) and TG2 in the kidney tissue; from tissue; host or cells: kidney tissue of UUO C57BL/6 mice
T1 sequence (P21981 1-686): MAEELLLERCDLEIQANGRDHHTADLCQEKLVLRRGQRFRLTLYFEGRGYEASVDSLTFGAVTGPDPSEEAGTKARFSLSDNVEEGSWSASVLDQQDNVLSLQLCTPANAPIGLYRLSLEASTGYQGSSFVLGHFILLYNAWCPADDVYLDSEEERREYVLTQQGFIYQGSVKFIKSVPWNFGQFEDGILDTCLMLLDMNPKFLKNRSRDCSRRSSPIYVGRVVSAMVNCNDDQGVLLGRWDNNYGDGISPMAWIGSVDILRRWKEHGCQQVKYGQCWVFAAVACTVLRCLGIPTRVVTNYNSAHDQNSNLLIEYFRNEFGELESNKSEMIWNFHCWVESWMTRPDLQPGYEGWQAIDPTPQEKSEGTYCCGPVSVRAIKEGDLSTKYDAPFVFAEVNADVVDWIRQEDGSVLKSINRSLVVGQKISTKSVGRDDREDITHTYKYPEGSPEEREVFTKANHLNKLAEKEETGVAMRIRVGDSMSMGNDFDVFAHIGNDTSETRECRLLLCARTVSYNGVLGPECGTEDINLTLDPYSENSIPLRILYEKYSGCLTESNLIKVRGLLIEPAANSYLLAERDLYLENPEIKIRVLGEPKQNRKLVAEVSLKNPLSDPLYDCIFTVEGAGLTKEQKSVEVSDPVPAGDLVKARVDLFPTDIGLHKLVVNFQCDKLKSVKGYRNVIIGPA
Experimental: Groups of 8 UUO-mice were treated directly after ligation of the ureter over a time period of two weeks with three different dosages of said compound: 100 mg/kg body weight, 300 mg/kg body weight, and 1000 mg/kg body weight. The daily dosage was administered orally as a suspension at intervals of 8 hours. In a control group, the UUO-mice were treated in same way but merely with the vehicle methyl cellulose. After the end of the treatment, the histopathological investigation of the kidney tissue as well as the determination of the amount of hydroxyproline in the kidney was performed. Furthermore, an immune-histochemical localisation of the complex of (S,E)-methyl-7-(1-(2-(2-ethylbutylamino)-2-oxoethyl)-2-oxo-1,2-dihydro-pyridin-3-ylamino)-6-(1-methyl-1H-imidazole-5-carboxamido)-7-oxohept-2-enoate and TG2 by means of (S,E)-methyl-7-(1-(2-(2-ethylbutylamino)-2-oxoethyl)-2-oxo-1,2-dihydro-pyridin-3-ylamino)-6-(1-methyl-1H-imidazole-5-carboxamido)-7-oxohept-2-enoate-specific antibody was carried out.

STAM-model and UUO-model = experiment: Dose-activity-relationship in STAM-model and UUO-model; type: in vivo, C57BL/6-mouse
From the text: The reduction of the fibrotic area in the tissue in comparison to the untreated control animals can be considered as a measure for the anti-fibrotic effect of compound of formula (I) in STAM-model as well as in the UUO-model. For the STAM- and UUO-model the anti-fibrotic effect in dependence of the dose or in dependence of the exposure (Plasma Cmax or Plasma-AUC) are depicted in FIG. 5.

[3] = Pharmacokinetic in the C57BL/6-mouse; type: in vivo; conditions: oral suspension
Experimental: The study serves to describe the pharmacokinetics of compound of formula (I) in the C57BL/6-mouse. The dosage was analogous to the dosage in the STAM-model (example 3) or in the UUO-model (example 2) in order to ensure the estimation of the systemic exposition in these models and to correlate the pharmacokinetic data with the efficacy data.
Groups of 12 C57BL/6-mice were treated with three different dosages of compound of formula (I) over a time period of 7 days: 100 mg/kg body weight, 300 mg/kg body weight, and 1000 mg/kg body weight. The daily dosage was administered orally as a suspension in two parts at intervals of 8 hours. On day 7 of treatment three different blood samples per animal were collected. The time points in the group were distributed in such a way that the 24 h-profile was covered with in total 12 different time points (3 animals per time point).
The determination of compound of formula (I) in the blood plasma was performed by means of a previously validated HLPC-MS/MS method.

For CCC(CC)CNC(=O)Cn1cccc(NC(=O)[C@H](CC/C=C/C(=O)OC)NC(=O)c2cncn2C)c1=O [compound of formula (I), (S,E)-methyl-7-(1-(2-(2-ethylbutylamino)-2-oxoethyl)-2-oxo-1,2-dihydro-pyridin-3-ylamino)-6-(1-methyl-1H-imidazole-5-carboxamido)-7-oxohept-2-enoate], the liver histology ([1]; 100, 300, 1000 mg/kg body weight daily, oral suspension in two parts, two weeks) was “significant, dosage dependent improvement”, the “fibrotic area in the liver” value ([1]; 100, 300, 1000 mg/kg, significant in the middle and high dosage group) was “marked, dosage dependent reduction” and the liver inflammation ([1]; STAM mice) was “dose-dependent and significant reduction”. For the same compound, the “fat content in the liver” value ([1]; STAM-mice, oral, two weeks) was “no influence”, the “reduction of the fibrosis compared with positive control Telmisartan” value ([1]; high dosage group, comparison with historical data) was “lay in the area of Telmisartan” and the “NAFLD Activity Score (NAS)” value ([1]; middle and high dosage group (300, 1000 mg/kg), mainly reduction of inflammation and ballooning) was “reduced in the middle and high dosage group”. For the same compound, the “hydroxyproline content in the kidney” value [2] was “remained unaffected”, the “fibrotic area of the kidney” value ([2]; versus vehicle control) was “significant, marked, dosage dependent reduction” and the “immune-histochemical localisation of the complex of compound and TG2 in the kidney tissue” value (TG2) was “reach the target site and inhibits the target molecule”. For the same compound, the “anti-fibrotic effect in dependence of the exposure in plasma” value (STAM-model and UUO-model; Plasma Cmax or Plasma-AUC) was “almost linear correlation”, the “anti-fibrotic effect in STAM-model versus UUO-model” value (STAM-model and UUO-model; reduction of the fibrotic area versus control, liver and kidney) was “the same anti-fibrotic effect” and the “bioavailability in the mouse model” value [3] was “measurable”.
